Reference: paper PMC7467243, “Response to and recovery from treatment in human liver-mimetic clinostat spheroids: a model for assessing repeated-dose drug toxicity” (Toxicology Research, 2020)

Experiments:
[1] = cited from earlier work
[2] = cited from earlier work; for Biological half-life (h): in vivo
[3] = test system: HepG2–C3A spheroids
Protocol: Three hundred 21-day old spheroids (corresponding to ~25 million cells or 3.5 mg protein) were gently pipetted (using a cut-tip) into each 10 ml bioreactor before treatment to provide ample material for analysis. To initiate drug treatment, the bioreactor rotation was stopped for 30 s to allow the spheroids to settle to the bottom of the bioreactor. […] Each narrow range experiment was carried out in duplicate and ATP was measured in technical triplicates for each sample. […] Data were normalized to the vehicle-treated control. Error bars in the figures show standard deviation.
Cell viability was measured based on their ability to produce ATP [37]. […] The cells were then lysed with 100 μl of lysis buffer (CellTiter-Glo luminescent cell viability assay, Promega, Fitchburg, WI, Cat. no. G7571) and shaken in the dark for 20 min. Before the luminescence was measured in a FluoStar OPTIMA (BMG Labtech, Ortenberg, Germany) using the following parameters: one kinetic window, 10 measurement cycles with 0.3 s of measurement interval time, 2-s delay per measurement, additional 0.5-s delay per position change (repeated twice for each measured plate). Replicates were performed as described under the ‘Drug treatment’ Section. The data were normalized with reference to a standard curve for ATP and to the untreated control.

[4] = cited from earlier work; remark: listed apart in the source
[5] = design: method as in PMID 22407198, PMID 12889529; settings: therapeutic dose 4 g/day; cited from earlier work
[6] = test system: HepG2/C3A spheroids; design: method as in earlier work; settings: cited from earlier work

## O=C(O)Cc1ccccc1Nc1c(Cl)cccc1Cl [Diclofenac]
[1]
  effectiveness as an anti-inflammatory agent compared with other non-steroidal anti-inflammatory drugs: 3-1000 ×
[2]
  Biological half-life (h): 1–2 h

## CN(C)C(=N)N=C(N)N [Metformin]
[3]; 5 mg/mg (highest dose), glucose medium
  reduction in ATP production: 70%

## CC(=O)Nc1ccc(O)cc1 [Paracetamol]
[4]
  Toxic dose, μg/ml in blood: 100 to 150 µg/mL
[2]
  Biological half-life (h): 2–4 h
[5]
  blood concentration: 10000 to 25000 ng/mL
[3]; four treatments at 48-h intervals killed the spheroids, relative to 20 mg paracetamol per mg protein
  chronically lethal dose: Half of this dose
[3]; glucose medium
  acutely lethal dose: 20 mg paracetamol per mg protein

## [H]/N=C(/N)N/C(=N/[H])NCCc1ccccc1 [Phenformin]
[2]
  half-life: 7 h
  Biological half-life (h): 4–13 h

## CCCC(CCC)C(=O)O [VPA, valproic acid]
[6]
  acute toxicity threshold: 20 mg VPA per mg protein
  chronic toxicity threshold: 4 mg VPA per mg protein
[4]
  Toxic dose, μg/ml in blood: 40 to 100 µg/mL
[2]
  Biological half-life (h): 10–20 h
